Test results as given in PubChem BioAssay AID330 (DTP/NCI, 2004).
Where “and” joins values, the source holds several entries; their conditions need not be identical. Equal entries are not always repeated. Inconclusive results and toxic doses are left out.

Test system: P388 leukemia ip, CD2F1 mice, survival T/C
Test: NCI In Vivo Anticancer Drug Screen. Data for tumor model P388 Leukemia (intraperitoneal) in CD2F1 (CDF1) mice
Details: endpoint: median survival time, higher = longer survival
Outline: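 Mice carrying the transplanted tumor received test compound or vehicle. Survival was recorded in each group, and the value is the treated-group measurement divided by that of the vehicle-treated control group.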

[1] = dose: 12.5 mg/kg/injection, schedule: Q01DX009 (ip), vehicle: saline with Tween-80
[2] = dose: 25.0 mg/kg/injection, schedule: Q01DX009 (ip), vehicle: saline with Tween-80
[3] = dose: 50.0 mg/kg/injection, schedule: Q01DX009 (ip), vehicle: saline with Tween-80
[4] = dose: 50.0 mg/kg/injection, schedule: Q01DX005 (ip), vehicle: saline
[5] = dose: 100.0 mg/kg/injection, schedule: Q01DX005 (ip), vehicle: saline
[6] = dose: 100.0 mg/kg/injection, schedule: Q04DX003 (ip), vehicle: saline with Tween-80
[7] = dose: 200.0 mg/kg/injection, schedule: Q04DX003 (ip), vehicle: saline with Tween-80
[8] = dose: 400.0 mg/kg/injection, schedule: Q04DX003 (ip), vehicle: saline with Tween-80
[9] = dose: 100.0 mg/kg/injection, schedule: Q01DX009 (ip), vehicle: saline with Tween-80

With `OCC1OC(n2cnc3c(SCc4ccccc4)ncnc32)C(O)C1O` (stereo unspecified) the T/C (dose: 88.0 mg/kg/injection, schedule: Q01DX009 (ip), vehicle: saline with Tween-80) was 100 % of control, the T/C (dose: 132.0 mg/kg/injection, schedule: Q01DX009 (ip), vehicle: saline with Tween-80) was 95 % of control and the T/C (dose: 200.0 mg/kg/injection, schedule: Q01DX009 (ip), vehicle: saline with Tween-80) was 86 % of control.
For `CC1OC(=Nc2ccccc2)NC1=O` (stereo unspecified), the T/C (dose: 100.0 mg/kg/injection, schedule: Q01DX001 (ip), vehicle: saline with Tween-80) was 97 % of control and the T/C (dose: 200.0 mg/kg/injection, schedule: Q01DX001 (ip), vehicle: saline with Tween-80) was 89 % of control.
`NNC(=O)CCCCCCCCCCCCCCCO` was tested, and the T/C [1] was 97 % of control, the T/C [2] was 88 % of control and the T/C [3] was 88 % of control.
With `O=c1c2ccccc2nc(/C=N/NC(=S)Nc2ccc(Cl)cc2)n1-c1ccc(Br)cc1` the T/C (dose: 100.0 mg/kg/injection, schedule: Q04DX002 (ip), vehicle: saline with Tween-80) was 96 % of control and the T/C (dose: 200.0 mg/kg/injection, schedule: Q04DX002 (ip), vehicle: saline with Tween-80) was 88 % of control.
In the case of `CC([NH-])C[NH-].O=C(O)C(=O)O.[Pt+2]`, the T/C (dose: 6.25 mg/kg/injection, schedule: Q04DX002 (ip), vehicle: saline with Tween-80) is reported as 151 % of control and the T/C (dose: 6.25 mg/kg/injection, schedule: Q04DX002 (ip), vehicle: saline) is reported as 150 % of control.
For `CC(=O)c1c(C)cc2cc(O)cc(OC3OC(CO)C(O)C(O)C3O)c2c1O` (stereo unspecified), the T/C (dose: 1.5 mg/kg/injection, schedule: Q01DX005 (ip), vehicle: saline + alcohol) was 96 % of control, the T/C (dose: 3.0 mg/kg/injection, schedule: Q01DX005 (ip), vehicle: saline + alcohol) was 103 % of control and the T/C (dose: 6.0 mg/kg/injection, schedule: Q01DX005 (ip), vehicle: saline + alcohol) was 92 % of control. The T/C (dose: 12.0 mg/kg/injection, schedule: Q01DX005 (ip), vehicle: saline + alcohol) was 108 % of control and 94 % of control, the T/C (dose: 24.0 mg/kg/injection, schedule: Q01DX005 (ip), vehicle: saline + alcohol) was 100 % of control and the T/C (dose: 48.0 mg/kg/injection, schedule: Q01DX005 (ip), vehicle: saline + alcohol) was 99 % of control.
For `C[Si]c1ccccc1CN(C)C`, the T/C [4] was 106 % of control and the T/C [5] was 102 % of control.
`CC(C)(C)SC(=O)CCl` was tested, and the T/C [6] was 116 % of control and the T/C [7] was 89 % of control.
For `O=C(CCCCC(=O)N1CCOCC1)N1CCOCC1`, the T/C [4] was 100 % of control, the T/C [5] was 101 % of control and the T/C (dose: 200.0 mg/kg/injection, schedule: Q01DX005 (ip), vehicle: saline) was 101 % of control.
For `NC(Cc1ccc([N+](=O)[O-])cc1)C(=O)O` (stereo unspecified), the T/C (dose: 100.0 mg/kg/injection, schedule: Q01DX001 (ip), vehicle: saline) was 104 % of control, the T/C [6] was 104 % of control and the T/C (dose: 200.0 mg/kg/injection, schedule: Q01DX001 (ip), vehicle: saline) was 104 % of control. The T/C [7] was 100 % of control, the T/C (dose: 400.0 mg/kg/injection, schedule: Q01DX001 (ip), vehicle: saline) was 109 % of control and the T/C [8] was 100 % of control.
In the case of `CNC(=O)Nc1nc2ccccc2[nH]1`, the T/C (dose: 20.0 mg/kg/injection, schedule: Q04DX003 (ip), vehicle: other) is reported as 100 % of control, the T/C (dose: 20.0 mg/kg/injection, schedule: Q04DX003 (oral), vehicle: other) is reported as 100 % of control and the T/C (dose: 40.0 mg/kg/injection, schedule: Q04DX003 (ip), vehicle: other) is reported as 95 % of control. For the same compound, the T/C (dose: 40.0 mg/kg/injection, schedule: Q04DX003 (oral), vehicle: other) was 100 % of control, the T/C (dose: 50.0 mg/kg/injection, schedule: Q04DX003 (ip), vehicle: Klucel (hydroxypropylcellulose) (HPC)) was 100 % of control (2×) and 109 % of control and the T/C (dose: 80.0 mg/kg/injection, schedule: Q04DX003 (ip), vehicle: other) was 102 % of control. For the same compound, the T/C (dose: 80.0 mg/kg/injection, schedule: Q04DX003 (oral), vehicle: other) was 100 % of control, the T/C (dose: 100.0 mg/kg/injection, schedule: Q04DX003 (ip), vehicle: Klucel (hydroxypropylcellulose) (HPC)) was 105 % of control and 111 % of control and 116 % of control and the T/C (dose: 160.0 mg/kg/injection, schedule: Q04DX003 (ip), vehicle: other) was 111 % of control. The T/C (dose: 160.0 mg/kg/injection, schedule: Q04DX003 (oral), vehicle: other) was 104 % of control, the T/C (dose: 200.0 mg/kg/injection, schedule: Q04DX003 (ip), vehicle: Klucel (hydroxypropylcellulose) (HPC)) was 112 % of control and 118 % of control and the T/C (dose: 320.0 mg/kg/injection, schedule: Q04DX003 (ip), vehicle: other) was 119 % of control. The T/C (dose: 320.0 mg/kg/injection, schedule: Q04DX003 (oral), vehicle: other) was 102 % of control, the T/C (dose: 400.0 mg/kg/injection, schedule: Q04DX003 (ip), vehicle: Klucel (hydroxypropylcellulose) (HPC)) was 109 % of control and 121 % of control and the T/C (dose: 640.0 mg/kg/injection, schedule: Q04DX003 (ip), vehicle: other) was 154 % of control. For the same compound, the T/C (dose: 640.0 mg/kg/injection, schedule: Q04DX003 (oral), vehicle: other) was 109 % of control.
In the case of `CCN(CC)CCN1C(=O)c2cccc3cc([N+](=O)[O-])cc(c23)C1=O`, the T/C (dose: 12.5 mg/kg/injection, schedule: Q01DX005 (ip), vehicle: Klucel (hydroxypropylcellulose) (HPC)) is reported as 107 % of control, the T/C (dose: 25.0 mg/kg/injection, schedule: Q01DX005 (ip), vehicle: Klucel (hydroxypropylcellulose) (HPC)) is reported as 124 % of control and the T/C (dose: 50.0 mg/kg/injection, schedule: Q01DX005 (ip), vehicle: Klucel (hydroxypropylcellulose) (HPC)) is reported as 156 % of control. For the same compound, the T/C (dose: 100.0 mg/kg/injection, schedule: Q01DX005 (ip), vehicle: Klucel (hydroxypropylcellulose) (HPC)) was 195 % of control.
With `CC1(C)N=C(N)N=C(N)N1c1ccc(OCCNS(=O)(=O)c2cccc(S(=O)(=O)F)c2)c(Cl)c1` the T/C (dose: 12.5 mg/kg/injection, schedule: Q01DX009 (ip), vehicle: saline) was 152 % of control, the T/C (dose: 25.0 mg/kg/injection, schedule: Q01DX009 (ip), vehicle: saline) was 157 % of control and the T/C (dose: 50.0 mg/kg/injection, schedule: Q01DX009 (ip), vehicle: saline) was 168 % of control. For the same compound, the T/C [9] was 154 % of control.
In the case of `COc1ccc(C2=C(Cl)C(=O)N(c3ccccc3C)C(=O)C2(Cl)Cl)cc1`, the T/C (dose: 100.0 mg/kg/injection, schedule: Q04DX002 (ip), vehicle: Klucel (hydroxypropylcellulose) (HPC)) is reported as 101 % of control, the T/C (dose: 200.0 mg/kg/injection, schedule: Q04DX002 (ip), vehicle: Klucel (hydroxypropylcellulose) (HPC)) is reported as 112 % of control and the T/C (dose: 400.0 mg/kg/injection, schedule: Q04DX002 (ip), vehicle: Klucel (hydroxypropylcellulose) (HPC)) is reported as 117 % of control.
With `c1ccc(-c2nnc(-c3ccccc3)nn2)cc1` the T/C (dose: 50.0 mg/kg/injection, schedule: Q04DX003 (ip), vehicle: saline with Tween-80) was 100 % of control, the T/C [6] was 100 % of control and the T/C [7] was 97 % of control. The T/C [8] was 93 % of control.
For `COc1c(C)cc(C)c(CBr)c1-c1c(CBr)c(C)cc(C)c1OC`, the T/C (dose: 100.0 mg/kg/injection, schedule: Q01DX001 (ip), vehicle: Klucel (hydroxypropylcellulose) (HPC)) was 95 % of control, the T/C (dose: 200.0 mg/kg/injection, schedule: Q01DX001 (ip), vehicle: Klucel (hydroxypropylcellulose) (HPC)) was 93 % of control and the T/C (dose: 400.0 mg/kg/injection, schedule: Q01DX001 (ip), vehicle: Klucel (hydroxypropylcellulose) (HPC)) was 88 % of control.
`COc1cccc2c1C(=O)c1c(O)c3c(c(O)c1C2=O)CC(O)(C(=O)C(C)C)CC3OC1CC(N)C(O)C(C)O1` (stereo unspecified) was tested, and the T/C (dose: 3.13 mg/kg/injection, schedule: Q01DX009 (ip), vehicle: water) was 117 % of control, the T/C (dose: 4.7 mg/kg/injection, schedule: Q04DX003 (ip), vehicle: water) was 115 % of control and the T/C (dose: 6.25 mg/kg/injection, schedule: Q01DX009 (ip), vehicle: water) was 117 % of control. The T/C (dose: 9.4 mg/kg/injection, schedule: Q04DX003 (ip), vehicle: water) was 110 % of control, the T/C (dose: 18.8 mg/kg/injection, schedule: Q04DX003 (ip), vehicle: water) was 101 % of control and the T/C (dose: 75.0 mg/kg/injection, schedule: Q04DX003 (ip), vehicle: water) was 92 % of control.
With `COc1cc2c3c4c1OCc1c5c(cc(c1-4)CC3[N+](C)(C)CC2)OCO5` (stereo unspecified) the T/C (dose: 25.0 mg/kg/injection, schedule: Q01DX001 (ip), vehicle: saline) was 100 % of control.
For `CCC(=O)c1ccc(O)c(O)c1`, the T/C [3] was 104 % of control and the T/C [9] was 105 % of control.
For `CC1(C)CC(OP(=[Se])(c2ccccc2)c2ccccc2)CC(C)(C)N1O`, the T/C (dose: 12.5 mg/kg/injection, schedule: Q01DX001 (ip), vehicle: Klucel (hydroxypropylcellulose) (HPC)) was 96 % of control, the T/C (dose: 25.0 mg/kg/injection, schedule: Q01DX001 (ip), vehicle: Klucel (hydroxypropylcellulose) (HPC)) was 99 % of control and the T/C (dose: 50.0 mg/kg/injection, schedule: Q01DX001 (ip), vehicle: Klucel (hydroxypropylcellulose) (HPC)) was 104 % of control.
In the case of `CCCCCCCCCCCCSC(SCCCCCCCCCCCC)SCCCCCCCCCCCC`, the T/C [1] is reported as 97 % of control, the T/C [2] is reported as 92 % of control and the T/C [3] is reported as 99 % of control. The T/C [9] was 106 % of control.
